# Test results reported in paper PMC10961359, “Targeting hexokinase 2 for oral cancer therapy: structure-based design and validation of lead compounds” (Frontiers in Pharmacology, 2024).
# Columns and labels:
# HK2 = target: T1, HK2 (Homo sapiens, UniProt P52789); test: HK2 enzyme inhibition assay (Abcam kit ab211114); format: biochemical
# T1 construct: purchased Abcam ab211114
# T1 sequence (P52789 1-917): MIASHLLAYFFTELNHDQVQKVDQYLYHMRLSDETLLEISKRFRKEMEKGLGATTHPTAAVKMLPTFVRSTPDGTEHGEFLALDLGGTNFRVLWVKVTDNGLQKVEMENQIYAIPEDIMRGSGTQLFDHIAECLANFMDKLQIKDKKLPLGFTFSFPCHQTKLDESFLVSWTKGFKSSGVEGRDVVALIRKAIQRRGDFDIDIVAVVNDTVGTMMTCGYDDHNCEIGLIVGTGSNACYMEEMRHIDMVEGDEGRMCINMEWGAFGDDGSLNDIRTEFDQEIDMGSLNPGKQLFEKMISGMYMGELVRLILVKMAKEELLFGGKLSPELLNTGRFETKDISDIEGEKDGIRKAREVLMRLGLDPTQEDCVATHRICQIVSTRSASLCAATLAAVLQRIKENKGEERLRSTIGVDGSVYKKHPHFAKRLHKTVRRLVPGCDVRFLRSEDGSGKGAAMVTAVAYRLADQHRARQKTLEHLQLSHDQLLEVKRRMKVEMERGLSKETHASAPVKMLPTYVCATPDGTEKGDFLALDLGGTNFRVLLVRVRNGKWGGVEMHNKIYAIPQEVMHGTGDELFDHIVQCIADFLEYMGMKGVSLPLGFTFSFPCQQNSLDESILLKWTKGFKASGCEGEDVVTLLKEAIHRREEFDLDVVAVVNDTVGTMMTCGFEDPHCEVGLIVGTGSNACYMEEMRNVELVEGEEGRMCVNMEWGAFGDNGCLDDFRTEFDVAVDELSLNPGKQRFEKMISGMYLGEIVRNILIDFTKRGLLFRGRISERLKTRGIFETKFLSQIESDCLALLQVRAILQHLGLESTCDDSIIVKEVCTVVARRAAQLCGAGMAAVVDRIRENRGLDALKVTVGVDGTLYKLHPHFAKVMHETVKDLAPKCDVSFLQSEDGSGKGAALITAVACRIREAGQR
# Experimental: The HK2 enzyme inhibition assay was performed using an HK2 inhibitor assay kit (Abcam, ab211114) according to the manufacturer’s instructions. Initially, 50 µM compound concentration was used to perform the enzyme activity inhibition studies, after which IC50 of the top leads were determined.
# The hits derived from the docking study were sourced from either commercial suppliers or pre-existing compounds within our laboratory or were synthesized anew. The FaDu and Cal27 oral cancer cells were treated with the compounds for 72 h at concentrations of 3, 10, 30, and 100 μM. A post-treatment MTT assay was done to evaluate their antiproliferative activity. Table S2 represents the anti-proliferative and enzyme inhibitory activity of the compounds obtained as hits from the structure-based drug design strategy. […] Consequently, 50 μM of all the hit compounds were evaluated for their HK2 enzyme inhibitory activity. 50 μM of compounds were incubated with HK2 protein and the rate of reaction was assessed in kinetic mode (rate of conversion of NAD to NADH). The choice of 50 μM concentration was based primarily on MTT assays and GI50 calculation. The average GI50 values of the hit compounds against less sensitive FaDu cell line was approximately 50 μM. Considering this information, we reasoned that utilizing a concentration equivalent to the average GI50 would allow us to assess the maximum inhibitory effect of the compounds on HK2 enzyme activity. […] The same compounds have been previously reported by our team to have EGFR phosphorylation inhibitory potential and were coded as H2 (compound 14) and H10 (compound 11) ([Chakraborty et al., 2022]). […] Figures 1C,D show the lead compounds H2 and H10 at the active site of HK2 enzyme interacting via H-bonds with the amino acid residues.
# [1] = system: EGFR tyrosine kinase phosphorylation in Cal27 cells; test: Western blot pEGFR in Cal27 lysates; format: cell-based; details: Cal27, 30 µM, 4 h post-treatment
# Cal27 spheroids = test: 3D spheroid culture of Cal27 cells; format: cell-based
# Experimental: Cal27 cells were seeded at a density of 10,000 cells per well in a 96-well plate coated with 1.5% agarose in incomplete medium. For the prophylactic treatment, medium containing the compounds was added to each well after 6 h of seeding. For treatment, compounds were added after 48 h of seeding. After incubation with the compounds, spheroids were imaged using phase-contrast microscopy to assess the morphology and size. Subsequently, the spheroids were pooled and dissociated into single cell suspension with trypsin for 10 min, washed with PBS and stained with propidium iodide (Cat# BD556547) to analyze the number of apoptotic cells using flow cytometry. For the analysis of spheroid images, each image was processed using ImageJ software where the threshold of each 8-bit image was adjusted to differentiate the darker spheroid area (the inner core) from the lighter spheroid area (the peripheral layers). Subsequently, the darker and lighter areas were measured in pixel square units using the ‘analyze particles’ option in ImageJ.
# Cells plated in monolayer cultures might behave differently as compared to 3D cultures. The 3D cultures can better mimic the tumor development and serve as a better tool for drug screening ([Zanoni et al., 2016]). Therefore, spheroid cultures of Cal27 cells were prepared and treated with lead H2. […]
smiles,measurement,setting,value
"COc1ccc(CNC(=O)c2nc3ccccc3s2)cc1O [Compound 14, N-(3-hydroxy-4methoxybenzyl)benzo[d]thiazole-2-carboxamide]",inhibition at 50 µM,HK2; read-out: % inhibition of HK2 enzyme activity at 50 µM,87%
same,IC50,HK2; read-out: IC50 against HK2,2940 ± 200 nM
same,EGFR tyrosine kinase phosphorylation,[1],does not significantly impact
same,spheroid growth,Cal27 spheroids; prophylactic and therapeutic treatment,reduction of spheroid growth
same,population of dead cells in spheroids,Cal27 spheroids; propidium iodide staining at the end of the study,increase in the population of dead cells
